Experiments:
Assay type in all cases: cell-based
MV4; 11 = assay: LDH release assay; details: Homo sapiens; MV4;11, 48 h
From the text: (§1) Identification of tumor types that are the most sensitive to the KSP inhibitors of the present invention can be accomplished using an unbiased approach that uses several cell-based assays. The assays chosen were as follows: • CellTiter-Glo®. This is an assay designed to measure ATP concentration in a cell culture, and can be correlated to cell number. Briefly CellTiter-Glo® (Promega Corporation) is a homogeneous method using the single CellTiter-Glo® reagent to detect ATP wherein ATP in the assay drives the activity of a thermostable luciferase to create a luminescent signal which can then be measured and correlated with the number of viable cells. Briefly, for adherent cells, 1,000 to 5,000 cells/well were plated in 96-well plates (100 μl/well) and let to adhere for 24 hours before being treated with drug. For non-adherent cells, 1,000 to 10,000 cells/well were plated in 96-well plates (100 μl/well) and immediately treated with drug. Drug dilutions were prepared in DMSO at 1000 times the final concentration. These dilutions were then diluted 1/100 in growth media before being added to the cells (11 μl/well) to achieve the desired final concentration. After 48 h in a 37° C. tissue culture incubator, the plates were processed for the CellTiter-Glo®assay according to the manufacturer's instructions. Protocol for a 72 hour cell proliferation assay: The 72 hour assay was performed the same way as the 48 hour assay except for the following modifications: For adherent cells, 500 to 5,000 cells/well were plated in 96-well plates (90 μl/well cell growth media) and left to adhere for 24 hours before being treated with drug. For non-adherent cells, 1,000 to 10,000 cells/well were plated in 96-well plates (90 μl/well cell growth media) and immediately treated with drug. Data values presented represent the concentration of test compound required for a 50% reduction in growth. • LDH release. […] The enzymatic reaction is coupled to a chemical reaction that uses a tetrazolium salt to form a formazan that is red and can be detected by its absorbance at 490 nm. […]

Colo-205 = assay: LDH release assay; details: Homo sapiens
From the text: as §1

SUDHL-4 = assay: Cell cycle profile by FACS (propidium iodide DNA content); details: SUDHL-4, 48 hr treatment
Procedure: Lymphoma cell line cells were treated with the KSP inhibitors of the invention and analyzed by FACs analysis. Approximately 2×10^5 cells were harvested, cell pellets were washed with cold PBS twice and re-suspended in 500 μL cold PBS. Cells were fixed by adding 8 mL cold 80% ethanol while vortexing slowly. After 15 minutes of incubation fixed cells were washed twice with PBS and cell pellets were re-suspended in 1 mL of PI/RNASE staining buffer (BD Pharmingen™ catalog #550825) and incubated for 15 minutes at 37° C. protected from light. Propidium iodide (PI) is a fluorescent vital dye that stains both DNA and RNA. Therefore the RNA must be removed by digestion with ribonuclease (RNase). Stained cells were passed through a cell strainer into a FACS tube to reduce the number of cell aggregates (BD Falcon #352235) prior to FACS analysis. The DNA content of the fixed and stained cells was analyzed by the BD FACSCalibur flow cytometer using the CellQuest software.
Following mitotic arrest, cells have several options including coming out of arrest and dividing normally, undergoing apoptosis directly, or exiting mitosis without cytokinesis (a phenomenon called mitotic slippage). If cells undergo mitotic slippage, they can enter a pseudo-G1 and then either continue to cycle, senesce, or undergo apoptosis. […]

CC(C)(C)[C@H](c1nc(-c2cc(F)ccc2F)cn1Cc1ccccc1)N(CC[C@H](N)CF)C(=O)CO [Compound IIa]
EC50 (MV4; 11): 0.03 nM | EC50 (Colo-205; Colo-205, 48 h): 0.11 nM | EC50 (Colo-205; Colo-205, 72 h): 0.16 nM | cell cycle profile (DNA content, FACS) (SUDHL-4): underwent apoptosis after 48 hr treatment
